Measured values published in ChEMBL document CHEMBL5154819 (Eur J Med Chem, 2022).

Legend:
[1] = tested on: Mus musculus; experiment: Antinociceptive activity in acetic acid induced ICR mouse assessed as inhibition effect at 6.25 mg/kg, iv administered for 15 mins followed by acetic acid injection and measured within 15 mins; type: functional; details: 0.5 h, time 30 min
[2] = tested on: Mus musculus; experiment: Analgesic activity in acetic acid induced ICR mouse assessed as average writhing times at 25 mg/kg, iv administered for 15 mins followed by acetic acid injection and measured within 15 mins (reference value: 26.1 +/- 16.3); type: functional; details: time 30 min, 0.5 h
[3] = tested on: Mus musculus; experiment: Analgesic activity in acetic acid induced ICR mouse assessed as average writhing times at 6.25 mg/kg, iv administered for 15 mins followed by acetic acid injection and measured within 15 mins (reference value: 26.1 +/- 16.3); type: functional; details: time 30 min, 0.5 h
[4] = species: Rattus norvegicus; experiment: Antiinflammatory activity in carrageenan-induced Sprague-Dawley rat assessed as paw withdrawal threshold measured after 2.5 hrs by paw pressure test; type: functional
[5] = tested on: Mus musculus; experiment: Analgesic activity in acetic acid induced ICR mouse assessed as average writhing times at 3.13 mg/kg, iv administered for 15 mins followed by acetic acid injection and measured within 15 mins (reference value: 26.1 +/- 16.3); type: functional; details: time 30 min, 0.5 h
[6] = tested on: Mus musculus; experiment: Analgesic activity in acetic acid induced ICR mouse assessed as average writhing times at 50 mg/kg, iv administered for 15 mins followed by acetic acid injection and measured within 15 mins (reference value: 26.1 +/- 16.3); type: functional; details: time 30 min, 0.5 h
[7] = tested on: Mus musculus; experiment: Analgesic activity in iv dosed ICR mouse assessed as reduction in acetic acid induced writhing administered for 15 mins followed by acetic acid injection and measured within 15 mins; type: functional; details: 0.5 h, time 30 min
[8] = tested on: Mus musculus; experiment: Antinociceptive activity in acetic acid induced ICR mouse assessed as inhibition effect at 12.50 mg/kg, iv administered for 15 mins followed by acetic acid injection and measured within 15 mins; type: functional; details: 0.5 h, time 30 min
[9] = Aqueous solubility of the compound at pH 7.8; type: physicochemical
[10] = tested on: Mus musculus; experiment: Antinociceptive activity in acetic acid induced ICR mouse assessed as inhibition effect at 50 mg/kg, iv administered for 15 mins followed by acetic acid injection and measured within 15 mins; type: functional; details: 0.5 h, time 30 min
[11] = tested on: Mus musculus; experiment: Analgesic activity in acetic acid induced ICR mouse assessed as average writhing times at 12.50 mg/kg, iv administered for 15 mins followed by acetic acid injection and measured within 15 mins (reference value: 26.1 +/- 16.3); type: functional; details: dose 12.5 mg/kg, time 30 min, 0.5 h
[12] = tested on: Mus musculus; experiment: Antinociceptive activity in acetic acid induced ICR mouse assessed as inhibition effect at 25 mg/kg, iv administered for 15 mins followed by acetic acid injection and measured within 15 mins; type: functional; details: 0.5 h, time 30 min

CCC(=O)[N-]S(=O)(=O)c1ccc(-c2c(-c3ccccc3)noc2C)cc1.[Na+] [PARECOXIB SODIUM]
inhibition in vivo at 6.25 mg/kg [1]: 14.9% | Activity [2]: 10.1 | Activity [3]: 22.2 | ED50 [4]: 22.7 mg/kg | Activity [5]: 21 | Activity [6]: 2.4 | ED50 [7]: 15.7 mg/kg | inhibition in vivo at 12.5 mg/kg [8]: 47.5% | solubility [9]: 18 mg/mL | inhibition in vivo at 50 mg/kg [10]: 90.8% | Activity [11]: 13.7 | inhibition in vivo at 25 mg/kg [12]: 61.3%
